We go through 65 compounds from PubChem BioAssay AID1626 (SRMLSC, 2009).

In this assay the test system is M. tuberculosis H37Rv growth inhibition. The assay can be described thus: M. tuberculosis H37Rv growth inhibitors, H37Rv strain (AID 1626). To be noted: for IC90: measured here: IC90 against H37Rv; for CC50: measured here: Vero cell cytotoxicity.

Consider `CCOC(=O)c1cc(-c2csc(COc3ccc(Cl)cc3)n2)on1`, for which the IC50 was under 0.195 µM and the IC90 was found to be 2.41 µM.

Compound `O=C(Nc1cccnc1)c1cc2cc(Br)ccc2oc1=O` returned a concentration for an effect of 90% (IC90) of over 100 µM.

For `Cc1oc2ccc(OC(=O)c3cccs3)cc2c1C(=O)OC(C)C`, the concentration for half-maximal inhibition (IC50) is 2.84 µM and the IC90 was found to be 21.3 µM.

`CC(C)c1ccc(NC(=O)COc2ccc(C3SCCS3)cc2)cc1` yielded a 90% effect concentration (IC90) of over 100 µM.

As for `Cc1c(C(=O)Oc2cccc3cccnc23)oc2ccccc12`, the IC50 is 3.04 µM, the IC90 amounted to 3.29 µM and the CC50 worked out at 34.6 µM.

For `CCn1ccnc1CN(C)Cc1cn(-c2cc(C)ccc2C)nc1-c1ccccc1`, the half-maximal inhibitory concentration (IC50) was 5.88 µM and the IC90 is 10.3 µM.

Regarding `O=C(Nc1ccc(N2CCCCC2)c(Cl)c1)c1ccc(N2CCOCC2)c([N+](=O)[O-])c1`, the IC50 was 40.2 µM, the IC90 was over 100 µM and the CC50 is 30 µM.

For the compound `C#CCOCCOCCOCCNc1nc(N2CCN(C(=O)[C@H](Cc3ccc(O)cc3)n3cc([C@@H](N)CC(C)C)nn3)CC2)nc(N2CCN(C(=O)[C@H](Cc3cc4ccccc4[nH]3)n3cc([C@@H](N)CC(C)C)nn3)CC2)n1`, the IC50 was 11.7 µM and the IC90 came to 16.7 µM.

Consider `COc1ccc2cc(-c3[nH]ncc3CN3CCCN(c4ccccc4)CC3)ccc2c1`, for which the IC50 was 9.35 µM, the IC90 is 15.4 µM and the CC50 was over 40 µM.

`CC(C)c1ccc(Nc2nnc(SCC(=O)Nc3ncc(S(=O)(=O)c4ccc([N+](=O)[O-])cc4)s3)s2)cc1`: the IC50 is 5.63 µM and the IC90 is 7.98 µM.

Turning to `COC(=O)CCSc1cc(NCCOC(C)=O)c([N+](=O)[O-])c2nonc12`, the IC50 is 16.1 µM and the IC90 stood at 40.3 µM.

Regarding `COc1cc2c(cc1NCc1ccccn1)oc1ccccc12`, the half-maximal inhibitory concentration (IC50) was 3.09 µM and the IC90 is 21.4 µM.

For the compound `N#Cc1cnc2c(-c3ccccc3)c(-c3ccccc3)nn2c1N`, the IC50 was 28.1 µM, the IC90 was over 100 µM and the CC50 was over 40 µM.

As to `Cc1ccc([N+](=O)[O-])cc1NC(=O)CN(C(=O)c1ccccc1Cl)C1CCCCC1`, the IC50 was 3.22 µM and the IC90 is 5.22 µM.

With `O=C(Nc1nc2ccccc2[nH]1)c1cc2ccccc2o1`, the IC50 is 37.2 µM, the IC90 was over 100 µM and the CC50 is over 40 µM.

For the compound `CCOC(=O)c1ccc(N/C=C/C(=O)C(C)(C)C)cc1`, the IC50 is 4.61 µM and the IC90 was over 100 µM.

For `O=C(Nc1ccc(-c2csc(Nc3cccc(C(F)(F)F)c3)n2)cc1)c1cccc(C(F)(F)F)c1`, the IC50 was 0.954 µM, the IC90 was 1.53 µM and the CC50 was found to be 17.6 µM.

As for `CC1(C)CC(NC(=O)c2sc3cc(Cl)ccc3c2Cl)CC(C)(C)N1`, the IC90 was over 100 µM and the cytotoxic concentration (CC50) came out at 12.6 µM.

Consider `O=[N+]([O-])c1cccnc1N1CCC(c2cc(-c3cccc(C(F)(F)F)c3)n[nH]2)CC1`, for which the IC50 was 6.34 µM, the IC90 was determined as 11 µM and the CC50 is over 40 µM.

As for `Cc1nc(-c2ccccn2)nc(SCC(=O)c2ccccc2)c1Cl`, the IC50 was 3.68 µM, the 90% effect concentration (IC90) amounted to 6.49 µM and the CC50 was over 40 µM.

Take `CCOC(=O)c1sc2nc(CSc3ccccc3)nc(N3CCCN(C)CC3)c2c1C`: the IC50 was 5.79 µM, the IC90 was found to be 6.53 µM and the CC50 worked out at 24.8 µM.

On to `C/C(=C\C(=O)c1ccncc1)Nc1ccccc1O`, for which the IC50 is under 0.195 µM, the IC90 is 28.2 µM and the 50% cytotoxic concentration (CC50) was over 40 µM.

For `CCOC(=O)Cn1c(-c2ccccc2)ccc(C#N)c1=O`, the IC50 was 4 µM and the IC90 was over 100 µM.

As for `Cc1ccc(-c2ccccc2NC(=O)CCl)o1`, the IC50 was 18.6 µM, the IC90 is over 100 µM and the CC50 is over 40 µM.

For `COc1ccccc1OC(=O)CCN1c2ccccc2Sc2ccccc21`, the IC50 is 11.8 µM and the IC90 came to 17.5 µM.

As for `Nc1nc(Cl)cc(N2CCC(c3cc(-c4ccc(Cl)cc4)n[nH]3)CC2)n1`, the IC50 is 77.9 µM, the 90% effect concentration (IC90) was over 100 µM and the cytotoxic concentration (CC50) was 13.6 µM.

`CNc1nc(-c2ccccn2)nnc1-c1ccccc1`: the IC50 is 8.5 µM, the IC90 was determined as 11.1 µM and the CC50 turned out to be 11.3 µM.

On to `Fc1ccc(-c2nnc(CSc3nnc(-c4cccs4)o3)o2)cc1`, for which the IC90 was over 100 µM.

On to `O=C(C[n+]1cc(-c2ccc(Cl)c(Cl)c2)n2c1CCC2)N1c2ccccc2Sc2ccccc21`, for which the IC50 was 12.2 µM and the IC90 came to 13.9 µM.

In the case of `Nc1ccc2c(c1)C(=O)C(=O)c1ccccc1-2`, the IC50 was 0.401 µM, the IC90 amounted to 13.5 µM and the CC50 was 3.16 µM.

Regarding `COc1cc2c(cc1OC)C1(Nc3c-2c(-c2ccccc2)nn3-c2ccccc2)C(=O)Nc2ccccc21` (stereo not drawn), the IC50 was 7.21 µM, the IC90 was 13.2 µM and the 50% cytotoxic concentration (CC50) turned out to be 23.7 µM.

As for `Cc1cc(NCCCn2ccnc2)n2nc(C)c(-c3ccc(Cl)cc3)c2n1`, the IC50 was 4.03 µM, the 90% effect concentration (IC90) is 5.75 µM and the CC50 is 12.9 µM.

`COc1ccccc1N1CCN(c2ncc(C(=O)N3CCN(c4cccc(Cl)c4)CC3)c3ccccc23)CC1` registered a CC50 of over 40 µM.

Regarding `Nc1nc(-c2ccc(F)cc2)cs1`, the IC50 was 23.8 µM and the IC90 was over 100 µM.

`CCOC(=O)c1ccc(NC(=O)Nc2ncccc2C)cc1` had a CC50 of over 40 µM.

`C#CCn1c(=NC(=O)c2cc(Cl)sc2Cl)sc2cc(S(N)(=O)=O)ccc21`: the IC50 was 1.57 µM, the IC90 is over 100 µM and the CC50 is over 40 µM.

`Cc1ccc(Cc2cnc(N3C(=N)SC(C)C3=O)s2)cc1` (stereo not drawn): the IC50 was 3.58 µM, the concentration for an effect of 90% (IC90) was 18.1 µM and the CC50 is over 40 µM.

Regarding `COc1ccc(NC(C#N)c2ccccc2OCc2ccccc2)cc1` (stereo not drawn), the IC50 is 69.8 µM and the IC90 was over 100 µM.

As to `Cc1ccc(C)c(N=Nc2ccc(O)c3ncccc23)c1`, the IC50 is 68.5 µM, the IC90 is over 100 µM and the CC50 was determined as 1.85 µM.

As for `CCOC(=O)CSc1nnc(-c2ccc([N+](=O)[O-])cc2)o1`, the IC50 was 0.316 µM and the 90% effect concentration (IC90) amounted to 3.84 µM.

With `CCCCn1c(=O)c(C(=O)Nc2nnc(C(C)C)s2)c(O)c2ccccc21`, the IC50 is 0.767 µM, the IC90 was 0.841 µM and the 50% cytotoxic concentration (CC50) is over 40 µM.

In the case of `COc1ccc2nc(C)cc(SCC(=O)OC(C)C)c2c1`, the IC50 is 9.36 µM and the 90% effect concentration (IC90) came out at 13.8 µM.

Take `COc1ccc(/C=c2\s/c(=C/C(=O)c3ccc(C)cc3)[nH]c2=O)cc1OC`: the IC50 is 32.6 µM and the IC90 is over 100 µM.

`CCOC(=O)c1cnc(Nc2nc3ccccc3o2)nc1C`: the IC50 is 20.4 µM, the IC90 was over 100 µM and the CC50 is 22.5 µM.

For `Cn1cnnc1SCc1ccc(-c2ccc(Br)cc2)o1`, the concentration for an effect of 90% (IC90) was over 100 µM and the CC50 is over 40 µM.

For the compound `CC(C)C1N=C(c2ccc3c(c2)OCO3)CC(c2ccccc2O)N1` (stereo not drawn), the IC50 was 10.6 µM, the IC90 worked out at 14.3 µM and the CC50 was found to be 26.8 µM.

With `c1ccc(-c2cc3c(N4CCN(c5ccccc5)CC4)ncnc3s2)cc1`, the IC50 was 11.3 µM and the IC90 is over 100 µM.

Compound `O/C(=C\c1nc2ccccc2nc1/C=C(\O)c1ccccc1)c1ccccc1` registered an IC90 of over 100 µM and a CC50 of over 40 µM.

On to `Cc1csc(NC(=O)c2cc([N+](=O)[O-])cc([N+](=O)[O-])c2)n1`, for which the IC50 was 11.1 µM, the IC90 turned out to be 15.9 µM and the cytotoxic concentration (CC50) is over 40 µM.

On to `COC(=O)c1cc(NC(=O)N2c3ccccc3Sc3ccccc32)cc(C(=O)OC)c1`, for which the CC50 is over 40 µM.

Turning to `Cc1ccc(S(=O)(=O)NC(=O)Nc2nc(-c3ccc(F)c(F)c3)cs2)cc1`, the IC50 was 6.15 µM and the 90% effect concentration (IC90) was over 100 µM.

Consider `CCOC(=O)c1ccc(NC(=O)c2cc3c(s2)CCC3)cc1`, for which the IC50 is 4.74 µM and the IC90 is over 100 µM.

For `O=C(Nc1nc(-c2ccc(-c3ccccc3)cc2)cs1)c1cnccn1`, the IC90 is over 100 µM and the half-maximal cytotoxic concentration (CC50) was over 40 µM.

As for `CCOC(=O)c1ccc(NC(=O)CCc2nc(-c3ccccc3Cl)no2)cc1`, the IC50 is 0.511 µM, the 90% effect concentration (IC90) came to 57.8 µM and the CC50 was over 40 µM.

For `O=C(Nc1cccnc1)c1c(O)c2cccc3c2n(c1=O)CC3`, the IC50 was 1.87 µM and the IC90 was found to be 2.08 µM.

Take `COc1cccc(N2CCN(c3cnc4ccccc4n3)CC2)c1`: the IC50 was 25.3 µM and the IC90 is over 100 µM.

`c1ccc(Oc2nc(-c3ccccn3)nc3ccccc23)cc1`: the IC50 was 2.71 µM, the IC90 worked out at 13.8 µM and the CC50 is over 40 µM.

As to `Cc1cc(NC2CCCCC2)nc(NCc2ccccc2)n1`, the 50% inhibitory concentration (IC50) was 10.3 µM, the IC90 came to 13.2 µM and the CC50 came out at 18.2 µM.

Consider `O=C(OCC#CCSc1nnc(-c2ccc([N+](=O)[O-])cc2)o1)c1cccs1`, for which the IC50 was under 0.195 µM and the IC90 was found to be 1.3 µM.

For `O=C(/C=C/c1cccc2ccccc12)c1ccncc1`, the IC50 is 8.2 µM, the IC90 came out at 12.7 µM and the CC50 was over 40 µM.

As to `COc1ccc(/C=C2\COc3ccccc3C2=O)cc1OC`, the IC50 is 9.44 µM, the IC90 amounted to 14.6 µM and the CC50 was 29.2 µM.

Regarding `N#Cc1ccc(/C=C/C(=O)c2ccc3c(c2)OCO3)cc1`, the IC90 was over 100 µM.

On to `CCN1CCN(Cc2ccc(NC(=O)c3cc(NC(=O)c4cc(-c5ccc(OC)cc5)n[nH]4)cc(OC)c3)cc2C(F)(F)F)CC1`, for which the IC50 is 4.41 µM, the IC90 was 5.93 µM and the CC50 stood at 6.28 µM.

Regarding `CC(C)Cc1cc(C(=O)Nc2c(F)cc(F)cc2Br)no1`, the IC50 is 6.59 µM and the IC90 is 10.5 µM.

On to `O=C1C=C(Nc2ccccc2)c2ccccc2C1=O`, for which the IC50 was 12.3 µM, the IC90 was 21.2 µM and the CC50 is 13.7 µM.

Usually IC50 stands for the concentration that gives 50% inhibition. In general, IC90 refers to the concentration needed for an effect of 90%. Broadly, the CC50 is the concentration at which the toxic effect on the cells reaches its halfway point.
